Reference: US10301288B2, “Kinase inhibitors” (Topivert Pharma Limited, priority 2013, dated 2019)
Marks after values point to notes of the source that are not given here.

Key:
c-Src = c-Src (Homo sapiens (Human), UniProt P12931); assay: c-Src enzyme inhibition (FRET); assay type: biochemical
Procedure, shortened: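 Z-LYTE FRET peptide assay: c-Src (3000 ng/mL) or Syk (2000 ng/mL) preincubated 2 h at room temperature with compound (4–0.004 μg/mL working solutions). Reaction was 1 h with peptide (8 μM solution) and ATP (800 μM c-Src, 60 μM Syk solutions), followed by 1 h protease development. Phosphorylation was read as the coumarin/fluorescein emission ratio.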

HT29 cells = assay: (d) IL-1β-induced IL-8 release in HT29 cells; assay type: cell-based; details: Homo sapiens, HT-29, read-out: IC50 for Inhibition of Cytokine Release, IL-8
Method: HT29 cells, a human colon adenocarcinoma cell line, are plated in a 96 well plate (24 hrs) and pre-treated with compounds at the desired concentration for 2 hours before addition of 5 ng/ml of IL-1β (Abeam) for 24 hours. Supernatants are harvested for IL-8 quantification by Sandwich ELISA (Duo-set, R&D System). The IC50 is determined from the dose response curve.

[1] = test system: adoptive transfer mouse model; assay: (D) Adoptive transfer in mice; assay type: in vivo, female SCID mice
Method: On Study day 0, female Balb/C mice are terminated and spleens obtained for CD45RB^high cell isolation (Using SCID IBD cell Separation protocol). Approximately 4×10^5 cells/mL CD45RB^high cells are then injected IP (100 μL/mouse) into female SCID animals. On study day 14, mice are weighed and randomized into treatment groups based on body weight. On Day 14 compounds are administered BID, via oral gavage, in a peanut oil vehicle at the dose levels outlined below and a dose volume of 5 mL/kg. Treatment continues until study day 42, at which point the animals are necropsied 4 hours after am administration. The colon length and weight is recorded and used as a secondary endpoint in the study as a measurement of colon oedema. The colon is then divided into six cross-sections, four of which are used for histopathology scoring (primary endpoint) and two are homogenised for cytokine analysis. Data shown is the % inhibition of the induction window between naïve animals and vehicle animals, where higher inhibition implies closer to the non-diseased, naïve, phenotype.

[2] = Plasma pharmacokinetics in beagle dogs; assay type: in vivo, male beagle dogs; details: Dog
Method: Blood samples (approximately 1.5 mL) were collected from jugular vein such that the samples were obtained at pre-dose, 0.25, 0.5, 1, 2, 4, 6, 8, and 24 hr (p.o.) and pre-dose, 0.08, 0.25, 0.5, 1, 2, 4, 8, 12, 24 and 32 hr (i.v.) post dose. The blood samples were collected from a set of three dogs at each time point in labelled micro centrifuge tube containing K2EDTA as anticoagulant. Plasma samples were separated by centrifugation at 2500 g for 10 min of whole blood and stored below −70° C. until bioanalysis. All samples were processed for analysis by protein precipitation using acetonitrile and analyzed with LC-MS/MS method (LLOQ=0.50 ng/mL). Pharmacokinetic parameters were calculated using the non-compartmental analysis tool of Phoenix WinNonlin® (Version 6.3).

[3] = Hepatic microsomal stability, human; assay type: in vitro ADME; details: pooled liver microsomes, read-out: Mean intrinsic clearance
Method: • Microsomal stability assays were performed with incubations of test compounds at 0.1 μM (n=2, final DMSO concentration 0.25%), and carried out using pooled human, […], rat and Cynomolgus macaque hepatic microsomes from Xenotech (Lots 1210153, 0810143 and 1110042, respectively) at 0.25 mg protein/mL in the presence of cofactor, NADPH. The incubations were performed at 37° C. with 100 μL aliquots taken from the incubation, at 0, 2, 5, 10 and 20 minutes (and, in the case of Cynomolgus macaque hepatic microsomes, 40 minutes) and reactions terminated by addition of 100 μL of acetonitrile containing carbamazepine as analytical internal standard. […] Half-life values were calculated from the relationship T1/2 (min)=−0.693/λ • where λ was the slope of the Ln concentration vs time curve. • The in vitro intrinsic clearance, Clint (mL/min/kg), was calculated and scaled to hepatic extraction ratios using the following scaling parameters and formulae.
Formulae Clint(tissue clearance) mL/min/kg=[0.693/t½ (min)]×[1/microsomal protein concentration mg/mL]×[mg microsomes/g liver]×[g liver/kg body weight] […] Half-life values were calculated from the relationship T1/2 (min)=−0.693/λ • where λ was the slope of the Ln concentration vs time curve. • Standard compounds testosterone, midazolam and 4-methylumbelliferone are included in the assay design.

[4] = Cryopreserved hepatocyte stability, dog; assay type: in vitro ADME; details: pooled cryopreserved hepatocytes, read-out: Mean intrinsic clearance
Method: (§1) Formulae Clint(tissue clearance) mL/min/kg=[0.693/t½ (min)]×[1/microsomal protein concentration mg/mL]×[mg microsomes/g liver]×[g liver/kg body weight] […] The incubations were performed at 37° C. with 100 μL, samples taken from the incubation, at 0, 10, 20, 45 and 90 minutes, and reactions terminated by addition of 100 μL of acetonitrile containing carbamazepine as analytical internal standard. […] Half-life values were calculated from the relationship T1/2 (min)=−0.693/λ • where λ was the slope of the Ln concentration vs time curve. • Standard compounds testosterone, midazolam and 4-methylumbelliferone are included in the assay design.
(§2) Clint(Tissue Clearance) mL/min/kg=[0.693/t½(min)]×[1/hepatocyte concentration (million cells/mL)]×[million cells/g liver]×[g liver/kg body weight] Clint(Hepatic clearance) mL/min/kg=hepatic blood flow×Clint/(hepatic blood flow+Clint) Hepatic extraction ratio(Eh)=Clint(Hepatic clearance) mL/min/kg/hepatic blood flow (mL/min/kg)

[5] = Cryopreserved hepatocyte stability, Cynomolgus macaque; assay type: in vitro ADME; details: pooled cryopreserved hepatocytes, read-out: Mean intrinsic clearance
Method: as §1, §2

[6] = test system: 71 receptors and 26 enzymes; assay: Cerep Diversity Profile; assay type: binding; details: 300 nM; any of 71 receptors and 26 enzymes
[7] = male, beagle, plasma, 0.05 mg/kg intravenous

c-Src, sequence (P12931 whole entry, looked up): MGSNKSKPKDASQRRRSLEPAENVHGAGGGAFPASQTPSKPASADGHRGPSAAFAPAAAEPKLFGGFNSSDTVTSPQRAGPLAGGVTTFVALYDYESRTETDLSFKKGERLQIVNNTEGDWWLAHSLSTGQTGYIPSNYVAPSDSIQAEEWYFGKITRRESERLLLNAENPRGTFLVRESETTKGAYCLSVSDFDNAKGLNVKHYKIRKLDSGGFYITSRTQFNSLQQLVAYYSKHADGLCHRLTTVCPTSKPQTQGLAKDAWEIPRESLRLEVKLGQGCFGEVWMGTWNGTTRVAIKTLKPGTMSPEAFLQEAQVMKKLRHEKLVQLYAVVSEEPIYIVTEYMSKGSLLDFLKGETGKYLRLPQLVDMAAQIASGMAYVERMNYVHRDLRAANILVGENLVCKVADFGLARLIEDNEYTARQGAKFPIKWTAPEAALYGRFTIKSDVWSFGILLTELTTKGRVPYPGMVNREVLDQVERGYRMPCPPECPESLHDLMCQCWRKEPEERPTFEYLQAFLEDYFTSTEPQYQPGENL

C#Cc1cc(Nc2nccc(Oc3ccc(NC(=O)Nc4cc(C(C)(C)C)nn4-c4ccc(C)cc4)c4ccccc34)n2)cc(C(=O)NCCOCCOCCOC)c1 [Example 2, 3-((4-((4-(3-(3-(tert-Butyl)-1-(p-tolyl)-1H-pyrazol-5-yl)ureido)naphthalen-1-yl)oxy)pyrimidin-2-yl)amino)-5-ethynyl-N-(2-(2-(2-methoxyethoxy)ethoxy)ethyl)-benzamide]
IC50 (c-Src): 11 nM
IC50 (HT29 cells): 3.3 nM
% Inhibition of colon weight:length ([1]; 0.04 mg/kg BID oral): 25%#
% inhibition of IL-8 release ([1]; 0.04 mg/kg BID oral): 34%#
% inhibition of overall histopathology score ([1]; 0.04 mg/kg BID oral): 2%
% Inhibition of colon weight:length ([1]; 0.2 mg/kg BID oral): 23%
% inhibition of IL-8 release ([1]; 0.2 mg/kg BID oral): 39%
% inhibition of overall histopathology score ([1]; 0.2 mg/kg BID oral): 5%
% Inhibition of colon weight:length ([1]; 1 mg/kg BID oral): 43%#
% inhibition of IL-8 release ([1]; 1 mg/kg BID oral): 36%#
% inhibition of overall histopathology score ([1]; 1 mg/kg BID oral): 33%
% Inhibition of colon weight:length ([1]; 5 mg/kg BID oral): 61%*
% inhibition of IL-8 release ([1]; 5 mg/kg BID oral): 90%#
% inhibition of overall histopathology score ([1]; 5 mg/kg BID oral): 46%
Fpo ([2]; 1 mg/kg p.o., Plasma): 0%
AUC(0-inf) [2, 7]: 223 ± 92 ng·h/mL
AUC(0-t) [2, 7]: 218 ± 90 ng·h/mL
C0 [2, 7]: 1370 ng/mL
Vd [2, 7]: 0.2 ± 0.1 L/kg
clearance [2, 7]: 4.1 ± 1.4 mL/min/kg
half-life [2, 7]: 1.9 ± 0.4 h
microsomal CLint at 0.1 μM [3]: > 554 µL/min/mg
hepatocyte CLint at 0.1 μM [4]: 46 µL/min/1e6 cells
hepatocyte CLint at 0.1 μM [5]: 43 µL/min/1e6 cells
inhibition of the control specific binding in the receptor binding assays or enzyme assays [6]: less than 25%
